# Test results published in patent US20230210902A1, “SARS-COV-2-SPECIFIC T CELLS” (priority 2020, published 2023).
# System: CTLs from Cas9 control and NR3C1 KO groups
# Test: Annexin V apoptosis assay with dexamethasone
# Assay type: cell-based, human
# Details: 200 µM, 72 hours
# Method: Annexin V apoptosis assay was performed to evaluate the effect of dexamethasone on the viability of CTLs from Cas9 control and NR3C1 KO groups. CTLs from both groups were treated with 200 µM dexamethasone (Sigma) for 72 hours. Cells were then collected, washed with annexin V buffer, and stained with annexin V (V500; BD Biosciences) and live/dead viability dye (efluor 660; Invitrogen) in addition to CD3 APC Cy7 (Biolegend, Clone HIT3A), CD4 APC (E Biosciences, Clone SK3), and CD8 PerCP Cy5.5 (Biolegend, Clone SK1). The proportion of apoptotic (positive for annexin V) and dead CTLs (positive for live/dead stain) was determined by flow cytometry.
compound,measurement,value
"C[C@@H]1C[C@H]2[C@@H]3CCC4=CC(=O)C=C[C@]4(C)[C@@]3(F)[C@@H](O)C[C@]2(C)[C@@]1(O)C(=O)CO [Dex, dexamethasone]",viability of control Cas9 COVID-19 CTLs,absence of viable cells
